Tests used:
retinal vasculature = assay: Retinal neovascularization after intravitreal injection; format: in vivo, mouse; settings: intravitreal 500 ng ManN or Kif, 200 ng bFGF; seven days
Description: Assessment of retinal angiogenesis following intravitreal administration was done. Briefly, 6-8 weeks old C57BL/6 male mice were randomly allocated to different groups and anesthetized with ketamine/Xylazine cocktail. The indicated amounts of ManN, Kif or bFGF (R&D systems, AF-233-NA) in 1 μl of PBS and PBS vehicle control were injected intravitreally with a 33-gauge Hamilton syringe. Seven days after injection, animals were euthanized. Eyes were then enucleated and fixed in 4% paraformaldehyde (PFA) for 30 mins. Retinas were separated and stained with anti-CD31 immunofluorescence (IF) to evidence the vasculature. Evaluations were performed by an investigator blinded to the treatment. For CD31 IF, rat anti-mouse antibody (BD Biosciences, CAT #550274) was diluted 1:100 and incubated overnight at 4° C. After 4-hour incubation with the Alexa Fluor-488-conjugated anti-rat antibody (Life Technologies, A11006), whole mounts were imaged via the 488 nm channel using A1R Confocal STORM super-resolution system (Nikon). Quantification of vascular density in choroids and retina was carried out by Image J. Each experiment was repeated three times with similar results, and each treatment group consists of 5 individual samples.

[1] = tested on: ERK, AKT, mTOR, CREB, ACC and eNOS; assay: Western blot of signal transduction pathways in BCECs; format: cell-based, bovine
Description: (§1) Cells were allowed to reach ˜80% confluency in 12-well plates. […] At various time points, plates were taken out of the incubator and kept on ice. Cell monolayers were first washed once with ice-cold PBS before lysis with 250 μl of Pierce RIPA buffer (ThermoFisher Scientific, Rockford, IL) or use 50 mM Tris-HCl (pH 7.6), 150 mM NaCl, 10% Glycerol, 1% NP-40 containing protease/Phosphatase inhibitor cocktail (100×) (Cell signaling, #5872). Lysates were collected and mixed with 4×Bolt LDS Sample Buffer (Novex, Carlsbad, CA) in the presence of Halt protease inhibitors and phosphatase inhibitor cocktail (ThermoFisher scientific, #NP0007). The samples were subjected to SDS-PAGE (Bolt 4-12% Bis-Tris Plus, Invitrogen) using Bolt MES SDS running buffer or NuPAGE 3-8% Tris-Acetate gel using Tris-Acetate SDS running buffer (Novex). HUVECs (passage 6-8) were plated in EBM-2 basal medium (Lonza) with 0.2% FBS. […] Equal amounts of protein lysates were analyzed by SDS-PAGE and blotted with the indicated antibodies. Proteins were transferred using Tris-Glycine buffer with 20% Methanol (Proteonomics grade) (Apex BioResearch Products). Membranes were first incubated with 5% milk in TBST, pH 7.6 (TEKnova, Hollister, CA), followed by blotting with primary and secondary antibodies. ECL anti-rabbit IgG, horseradish peroxidase linked whole antibody from donkey or sheep anti-mouse were obtained from GE Healthcare (UK limited). SuperSignal West Dura Extended Duration substrate was from ThermoFisher Scientific. In some cases, the same PVDF membranes were stripped by 8-min incubation in the Restore Plus Western Blot Stripping Buffer (ThermoFisher Scientific) to show total specific protein expression, followed by second stripping for β-actin expression.

[2] = tested on: BCEC confluent monolayers; assay: BCEC scratch assay; format: cell-based, bovine
Description: BCECs (passage 6-10) and HUVEC (passage 6-8) were used in this assay. Cells were grown until about 80% confluency in 6-well plates, washed twice with PBS and then starved in serum-free DMEM (low Glucose, Hyclone) for 5 hrs before making a “scratch” using 1 ml tip. Cell monolayers were briefly washed once with serum-free media, followed by various treatments in media containing 1% FBS. 48 hrs later, the assay was stopped by adding 2 ml 4% paraformaldehyde. 20 min later, fixed cells were stained with 1 ml Crystal Violet (Sigma). Plates were washed gently under the running tap water and air-dried before taking pictures. Images were acquired by ZEISS Discovery […] microscopy equipped with […] camera. Quantification of wound closure was done using AxioVision LE Rel.4.4 software. Six images were taken for each sample and six measurements (in pixel) were made on each image using AxioVision LE Rel.4.4 software.

JNK/c-Jun = assay: Western blot of JNK pathway activation in BCECs; format: cell-based, bovine; settings: media without growth factors
Description: as §1, with “80%” for “˜80%”

VEGFR2 = assay: Western blot of VEGFR2 molecular mass in BCECs and BRECs; format: cell-based, bovine
Description: Glycerol-free PNGase F was obtained from New England Biolabs (Ipswich, MA). Briefly, BCECs were lysed with NP-40 containing proteinase inhibitors (Thermo Scientific, Waltham, MA). Lysates were cleared at 4° C. at 5000 g for 25 mins. Total protein content was measured using Pierce BCA protein assay kit (ThermoScientific). […] of protein was mixed with 10× denaturing buffer and H2O to a total volume of […]. Glycoproteins were denatured at 100° C. for 10 mins, followed by adding Glycobuffer and PNGase F. The reaction was carried out at 37° C. for 2 hr.
as §1

Structure (SMILES) | increase in density of retinal vessels compared to PBS group (retinal vasculature) [%] | activation of ERK, AKT and CREB with both ManN and VEGF compared to ManN or VEGF alone [1] | activation of ERK, AKT, mTOR and CREB ([1]; 40 uM) | activation of eNOS and ACC ([1]; 40 uM) | time to activation of eNOS and ACC ([1]; 40 uM) [min] | time to stimulation of ERK, AKT and CREB after adding ManN ([1]; 40 uM) [min] | closure of the scratched area compared to control ([2]; 40 uM ManN or 50 ng/ml of VEGF, after 48 hours) | additivity of ManN and VEGF in scratch assay ([2]; both ManN and VEGF) | activation of JNK pathway (JNK and downstream c-Jun) (JNK/c-Jun) | duration of ManN effects on protein mass in the absence of exogenous ManN (VEGFR2; BCECs) | concentration at which VEGFR2 molecular mass shift starts (VEGFR2; BCECs and BRECs) [µM] | effect on apparent molecular mass of VEGFR2 (VEGFR2; BCECs and BRECs) | new lower molecular weight VEGFR2 bands (VEGFR2; BCECs, control major band ~230 KDa, minor ~210 KDa) | extent of loss of VEGFR2 glycosylation (PNGase F treatment) (VEGFR2; ManN at uM concentrations) | reversibility of effects on VEGFR2 molecular mass after ManN removal (VEGFR2; after 24 hours) | activation of ERK and AKT ([1]; 40 uM, BCECs) | activity of glycosylation inhibitors in BCEC scratch assay ([2]; over 48 hours relative to control) | VEGFR2 molecular mass after glycosylation inhibitor treatment (VEGFR2; 24 hours, SDS-PAGE)
N[C@H](C=O)[C@@H](O)[C@H](O)[C@H](O)CO [ManN, 2-Amino-2-deoxy-D-mannose] | ~30 | enhancement in activation | activated | significantly activated | 10 to 30 | 10 to 30 | significantly accelerated | additivity was observed | significantly activated | at least 8 hours | 40 | shifted significantly | 170-200 KDa | not all the glycosylation on VEGFR2 was abolished | completely reverse |  |  | 
O=C1N[C@@H]2[C@@H](O)[C@@H](O)[C@H](O)[C@@H](CO)N2C1=O [Kif, Kifunensine, reference compound] | ~20 |  |  |  |  |  |  |  | able to activate the JNK pathway |  |  |  |  |  |  | significantly activate | significant activity | reduction in VEGFR2 molecular mass
